From paper PMC12951562, “SH2scan: Mapping SH2 Domain-Ligand Binding Selectivity for Inhibitors and Degraders” (Journal of Medicinal Chemistry, 2026)
Read-outs that look alike come from different tables or passages of the source.

What was measured:
Experiment in all cases: biochemical
Type in all cases: binding
BLNK = target: T1, BLNK (Homo sapiens, UniProt Q8WV28); conditions: read-out: percent of DMSO vehicle control
T1 construct: the DNA-tagged SH2 domain concentrations used in this study were <0.1 nM; made in house; host or cells: HEK293 (transient transfection; unpurified extract)
T1 sequence (Q8WV28 346-453 limits assumed): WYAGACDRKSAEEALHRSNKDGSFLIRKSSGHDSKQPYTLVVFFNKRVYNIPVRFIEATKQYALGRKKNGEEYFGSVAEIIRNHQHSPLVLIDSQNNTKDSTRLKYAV

BRK = target: T2, BRK (Homo sapiens, UniProt Q13882); conditions: for remaining activity at 10 µM: read-out: percent of DMSO vehicle control; for KD: dose-response
T2 construct: the DNA-tagged SH2 domain concentrations used in this study were <0.1 nM; made in house; host or cells: HEK293 (transient transfection; unpurified extract)

CRKL = target: T3, CRKL (Homo sapiens, UniProt P46109); conditions: read-out: percent of DMSO vehicle control; for remaining activity at 10 µM: primary screen
T3 construct: the DNA-tagged SH2 domain concentrations used in this study were <0.1 nM; made in house; host or cells: HEK293 (transient transfection; unpurified extract)

DAPP1 = target: T4, DAPP1 (Homo sapiens, UniProt Q9UN19); conditions: read-out: percent of DMSO vehicle control; for remaining activity at 10 µM: primary screen
T4 construct: the DNA-tagged SH2 domain concentrations used in this study were <0.1 nM; made in house; host or cells: HEK293 (transient transfection; unpurified extract)
T4 sequence (Q9UN19 35-129 limits assumed): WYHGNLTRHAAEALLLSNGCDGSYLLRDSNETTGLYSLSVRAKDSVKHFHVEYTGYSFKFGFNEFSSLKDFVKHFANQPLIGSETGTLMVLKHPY

FES = target: T5, FES (Homo sapiens, UniProt P07332); conditions: read-out: percent of DMSO vehicle control
T5 construct: the DNA-tagged SH2 domain concentrations used in this study were <0.1 nM; made in house; host or cells: HEK293 (transient transfection; unpurified extract)

FYN = target: T6, FYN (Homo sapiens, UniProt P06241); conditions: read-out: percent of DMSO vehicle control; for remaining activity at 10 µM: primary screen
T6 construct: the DNA-tagged SH2 domain concentrations used in this study were <0.1 nM; made in house; host or cells: HEK293 (transient transfection; unpurified extract)

GRB2 = target: T7, GRB2 (Homo sapiens, UniProt P62993); conditions: for percent of DMSO vehicle control: primary screen, 10 μM
T7 construct: the DNA-tagged SH2 domain concentrations used in this study were <0.1 nM; made in house; host or cells: HEK293 (transient transfection; unpurified extract)

MATK = target: T8, MATK (Homo sapiens, UniProt P42679); conditions: for percent of DMSO vehicle control at 10 µM / remaining activity at 10 µM: read-out: percent of DMSO vehicle control; for remaining activity at 10 µM: primary screen
T8 construct: the DNA-tagged SH2 domain concentrations used in this study were <0.1 nM; made in house; host or cells: HEK293 (transient transfection, unpurified extract)
T8 sequence (P42679 122-211 limits assumed): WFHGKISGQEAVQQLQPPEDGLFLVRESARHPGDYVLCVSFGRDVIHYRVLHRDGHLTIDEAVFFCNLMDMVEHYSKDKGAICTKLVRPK

NCK1 = target: T9, NCK1 (Homo sapiens, UniProt P16333); conditions: for remaining activity at 10 µM: read-out: percent of DMSO vehicle control
T9 construct: the DNA-tagged SH2 domain concentrations used in this study were <0.1 nM; made in house; host or cells: HEK293 (transient transfection, unpurified extract)

RASA1(SH2dom.C-term.) = target: T10, RASA1(SH2dom.C-term.) (Homo sapiens, UniProt P20936); conditions: read-out: percent of DMSO vehicle control
T10 construct: SH2dom.C-term. denotes SH2 domain closest to C-terminus of protein; made in house; host or cells: HEK293 (transient transfection, unpurified extract)
T10 sequence (P20936 351-441 limits assumed): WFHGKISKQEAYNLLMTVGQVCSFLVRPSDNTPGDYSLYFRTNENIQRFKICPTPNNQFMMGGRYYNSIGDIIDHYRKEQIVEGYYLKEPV

SHC4 = target: T11, SHC4 (Homo sapiens, UniProt Q6S5L8); conditions: read-out: percent of DMSO vehicle control
T11 construct: made in house; host or cells: HEK293 (transient transfection), unpurified extract
T11 sequence (Q6S5L8 1-630): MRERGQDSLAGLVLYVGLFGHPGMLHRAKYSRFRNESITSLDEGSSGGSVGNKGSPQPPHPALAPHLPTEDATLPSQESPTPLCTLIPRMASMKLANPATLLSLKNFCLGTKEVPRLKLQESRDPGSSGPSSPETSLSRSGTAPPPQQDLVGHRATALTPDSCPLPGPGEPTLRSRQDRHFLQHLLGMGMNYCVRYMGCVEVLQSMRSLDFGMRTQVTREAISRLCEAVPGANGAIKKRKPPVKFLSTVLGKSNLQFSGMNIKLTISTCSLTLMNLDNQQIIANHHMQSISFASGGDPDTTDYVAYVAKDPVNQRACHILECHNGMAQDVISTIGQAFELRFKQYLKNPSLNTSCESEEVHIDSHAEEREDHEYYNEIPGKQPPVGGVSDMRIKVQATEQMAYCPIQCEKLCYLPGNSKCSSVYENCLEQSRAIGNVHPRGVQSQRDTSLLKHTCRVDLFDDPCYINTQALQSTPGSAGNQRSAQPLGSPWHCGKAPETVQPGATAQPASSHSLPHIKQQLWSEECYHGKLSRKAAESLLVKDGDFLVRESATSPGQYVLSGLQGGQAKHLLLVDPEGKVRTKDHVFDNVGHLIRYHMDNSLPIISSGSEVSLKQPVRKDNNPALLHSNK

SRC = target: T12, SRC (Homo sapiens, UniProt P12931); conditions: read-out: percent of DMSO vehicle control
T12 construct: made in house; host or cells: HEK293 (transient transfection), unpurified extract

VAV3 = target: T13, VAV3 (Homo sapiens, UniProt Q9UKW4); conditions: read-out: percent of DMSO vehicle control; for remaining activity at 10 µM: primary screen
T13 construct: made in house; host or cells: HEK293 (transient transfection), unpurified extract
T13 sequence (Q9UKW4 1-847): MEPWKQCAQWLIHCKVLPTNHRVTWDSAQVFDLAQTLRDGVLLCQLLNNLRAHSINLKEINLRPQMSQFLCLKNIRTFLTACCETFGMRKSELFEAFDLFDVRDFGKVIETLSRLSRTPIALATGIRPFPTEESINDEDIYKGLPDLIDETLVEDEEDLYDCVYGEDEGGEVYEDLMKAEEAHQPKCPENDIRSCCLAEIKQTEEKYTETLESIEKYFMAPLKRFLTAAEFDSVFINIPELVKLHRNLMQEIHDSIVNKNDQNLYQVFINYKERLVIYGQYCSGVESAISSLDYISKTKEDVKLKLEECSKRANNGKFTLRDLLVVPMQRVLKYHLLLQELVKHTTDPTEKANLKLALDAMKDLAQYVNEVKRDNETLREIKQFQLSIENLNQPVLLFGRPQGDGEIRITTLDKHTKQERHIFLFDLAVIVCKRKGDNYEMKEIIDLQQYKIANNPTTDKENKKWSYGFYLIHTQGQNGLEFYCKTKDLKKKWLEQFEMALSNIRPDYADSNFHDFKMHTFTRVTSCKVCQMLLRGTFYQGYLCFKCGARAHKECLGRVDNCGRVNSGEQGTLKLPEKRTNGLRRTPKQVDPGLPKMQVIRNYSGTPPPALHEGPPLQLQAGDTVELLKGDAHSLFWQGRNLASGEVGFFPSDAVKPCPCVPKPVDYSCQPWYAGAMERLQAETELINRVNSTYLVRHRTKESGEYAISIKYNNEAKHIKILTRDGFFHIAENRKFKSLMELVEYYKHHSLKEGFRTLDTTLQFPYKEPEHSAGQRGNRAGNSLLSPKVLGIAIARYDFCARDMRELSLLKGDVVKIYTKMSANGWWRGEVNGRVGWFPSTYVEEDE

T5 sequence (P07332 460-549 limits assumed): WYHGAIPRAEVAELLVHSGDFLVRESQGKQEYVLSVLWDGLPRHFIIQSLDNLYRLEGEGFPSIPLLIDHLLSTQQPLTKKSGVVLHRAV
T7 sequence (P62993 60-152 limits assumed): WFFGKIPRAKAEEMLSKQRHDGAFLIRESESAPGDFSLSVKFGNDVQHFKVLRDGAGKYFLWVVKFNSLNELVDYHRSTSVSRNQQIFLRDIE
T3 sequence (P46109 14-102 limits assumed): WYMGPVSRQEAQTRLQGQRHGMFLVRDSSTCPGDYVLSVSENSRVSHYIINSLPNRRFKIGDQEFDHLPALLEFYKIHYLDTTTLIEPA
T12 sequence (P12931 whole entry): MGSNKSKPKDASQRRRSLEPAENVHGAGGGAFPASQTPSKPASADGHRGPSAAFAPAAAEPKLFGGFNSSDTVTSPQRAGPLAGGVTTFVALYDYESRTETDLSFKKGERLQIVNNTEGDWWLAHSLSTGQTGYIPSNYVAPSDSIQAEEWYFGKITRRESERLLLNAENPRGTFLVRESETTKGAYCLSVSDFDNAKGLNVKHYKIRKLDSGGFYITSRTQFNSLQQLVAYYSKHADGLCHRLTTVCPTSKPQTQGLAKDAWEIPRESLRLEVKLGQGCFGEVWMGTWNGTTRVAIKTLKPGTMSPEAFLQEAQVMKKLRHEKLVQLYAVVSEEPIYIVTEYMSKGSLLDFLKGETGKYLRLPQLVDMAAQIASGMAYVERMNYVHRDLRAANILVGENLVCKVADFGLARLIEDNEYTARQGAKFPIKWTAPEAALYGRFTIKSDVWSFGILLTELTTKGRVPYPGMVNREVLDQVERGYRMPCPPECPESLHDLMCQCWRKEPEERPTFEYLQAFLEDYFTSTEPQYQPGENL
T2 sequence (Q13882 78-170 limits assumed): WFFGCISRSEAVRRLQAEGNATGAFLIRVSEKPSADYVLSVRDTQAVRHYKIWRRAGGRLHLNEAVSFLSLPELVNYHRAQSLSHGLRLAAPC
T6 sequence (P06241 149-246 limits assumed): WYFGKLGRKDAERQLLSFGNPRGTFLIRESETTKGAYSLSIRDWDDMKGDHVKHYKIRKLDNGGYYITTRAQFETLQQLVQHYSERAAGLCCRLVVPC

NC(=O)CC[C@H](NC(=O)[C@@H]1CC[C@@H]2CCN(C(=O)CCCCCC#Cc3cccc4c3CN(C3CCC(=O)NC3=O)C4=O)C[C@H](NC(=O)c3cc4cc(C(F)(F)P(=O)(O)O)ccc4[nH]3)C(=O)N21)C(=O)NC(c1ccccc1)c1ccccc1 (some centres unmarked) [SD-36]
remaining activity at 10 µM (BLNK): 104% | remaining activity at 10 µM (BRK): 76.9 ± 3.5% | percent of DMSO vehicle control at 10 µM (CRKL): 119% | percent of DMSO vehicle control at 10 µM (DAPP1): 126% | remaining activity at 10 µM (FES): 46.3 ± 7.5% | percent of DMSO vehicle control at 10 µM (FYN): 106% | percent of DMSO vehicle control (GRB2): 92.9±1.6% | percent of DMSO vehicle control at 10 µM (MATK): 159 ± 5.1% | remaining activity at 10 µM (NCK1): 106% | remaining activity at 10 µM (RASA1(SH2dom.C-term.)): 86.6 ± 9.6% | remaining activity at 10 µM (SHC4): 100 ± 4.5% | remaining activity at 10 µM (SRC): 81.4 ± 1.5% | percent of DMSO vehicle control at 10 µM (VAV3): 82.1 ± 3.8%

CC(=O)N1CC[C@H]2CC[C@@H](C(=O)N[C@@H](CCC(N)=O)C(=O)NC(c3ccccc3)c3ccccc3)N2C(=O)[C@@H](NC(=O)c2cc3cc(C(F)(F)P(=O)(O)O)ccc3[nH]2)C1 [SI-109]
remaining activity at 10 µM (BLNK): 117% | remaining activity at 10 µM (BRK): 124% | percent of DMSO vehicle control at 10 µM (CRKL): 125% | percent of DMSO vehicle control at 10 µM (DAPP1): 149% | remaining activity at 10 µM (FES): 160% | percent of DMSO vehicle control at 10 µM (FYN): 97.3% | percent of DMSO vehicle control (GRB2): 104.9% | percent of DMSO vehicle control at 10 µM (MATK): 163% | remaining activity at 10 µM (NCK1): 124% | remaining activity at 10 µM (RASA1(SH2dom.C-term.)): 118% | remaining activity at 10 µM (SHC4): 136% | remaining activity at 10 µM (SRC): 117% | percent of DMSO vehicle control at 10 µM (VAV3): 130%

C/C(=C\C(=O)N[C@H](C(=O)N1CCC[C@H]1C(=O)N(c1ccccc1)c1ccc(I)cc1)C(C)(C)C)c1ccc(OP(=O)(O)O)cc1 [STAT6-IN-1]
remaining activity at 10 µM (BLNK; primary screen, 10 μM): 116 ± 19.9% | KD (BRK): No Hit | remaining activity at 10 µM (BRK; primary screen, 10 μM): 3 ± 0.4% | remaining activity at 10 µM (CRKL): 42.4 ± 0.9% | remaining activity at 10 µM (DAPP1): 41.1 ± 13.9% | remaining activity at 10 µM (FES; primary screen, 10 μM): 66.3 ± 6.4% | remaining activity at 10 µM (FYN): 48.2 ± 2.1% | Kd (GRB2; dose-response, read-out: KD): 6.04 ± 1.4 µM | Kd (MATK; dose-response, read-out: KD): 3 ± 0.49 µM | remaining activity at 10 µM (MATK): 6.5 ± 1.8% | KD (NCK1; dose-response): No Hit | remaining activity at 10 µM (NCK1; primary screen, 10 μM): 10.6 ± 2.6% | remaining activity at 10 µM (RASA1(SH2dom.C-term.); primary screen, 10 μM): 76.6 ± 7.8% | remaining activity at 10 µM (SHC4; primary screen, 10 μM): 77.1 ± 7.5% | remaining activity at 10 µM (SRC; primary screen, 10 μM): 53.3 ± 8.1% | remaining activity at 10 µM (VAV3): 40.3 ± 1.3%

CC(C)(C)[C@H](NC(=O)/C=C/c1ccc(OP(=O)(O)O)cc1)C(=O)N1CCC[C@H]1C(=O)N(c1ccccc1)c1ccc(I)cc1 [STAT6-IN-3]
remaining activity at 10 µM (BLNK; primary screen, 10 μM): 145 ± 22.5% | KD (BRK): No Hit | remaining activity at 10 µM (BRK; primary screen, 10 μM): 4.1 ± 47.5% | remaining activity at 10 µM (CRKL): 102 ± 19.9% | remaining activity at 10 µM (DAPP1): 58.9 ± 43.2% | remaining activity at 10 µM (FES; primary screen, 10 μM): 82 ± 13.1% | remaining activity at 10 µM (FYN): 51.8 ± 33.2% | percent of DMSO vehicle control (GRB2): 72.4±21.8% | remaining activity at 10 µM (MATK): 70.3 ± 45.8% | remaining activity at 10 µM (NCK1; primary screen, 10 μM): 85.1 ± 10.2% | remaining activity at 10 µM (RASA1(SH2dom.C-term.); primary screen, 10 μM): 123 ± 14.3% | remaining activity at 10 µM (SHC4; primary screen, 10 μM): 90.2 ± 12% | remaining activity at 10 µM (SRC; primary screen, 10 μM): 67 ± 21% | remaining activity at 10 µM (VAV3): 76.8 ± 21.6%
